Experiments:
[1] = Stability of the crystalline modification with regard to conversion into another form; details: for stability of the crystalline modification: solid forms of topramezone compared
[2] = Stability of formulations (e.g. aqueous suspension concentrates) comprising the solid form; type: physicochemical; details: compared between forms
[3] = Stability of the solvate at room temperature (release of solvent, conversion); type: physicochemical
Experimental: (§1) Crystallization of topramezone by evaporation of a solution of topramezone in a mixture of toluene with dichloromethane in the volume ratio 2:1 at temperatures below 30° C., in particular at temperatures in the range from 10 to 30° C. yields an unstable solvate V-S, which comprises 1 mol of toluene per mol of topramezone.
as §1, with “chlorobenzene” for “toluene”, “dichloromethane” for “dichloromethane in the volume ratio 2:1”, “VI-S,” for “V-S,”
Crystallization of topramezone by evaporation of a solution of topramezone in dichloromethane at temperatures below 30° C., in particular at temperatures in the range from 10 to 30° C. yields an unstable solvate VII-S, which comprises dichloromethane.

Structure (SMILES)	stability of the crystalline modification [1]	stability of formulations which comprise the form [2]	further results
Cc1c(C(=O)c2cnn(C)c2O)ccc(S(C)(=O)=O)c1C1=NOCC1 [form IV, [3-(4,5-dihydro-3-isoxazolyl)-2-methyl-4-(methylsulfonyl)phenyl]-(5-hydroxy-1-methyl-1H-pyrazol-4-yl)methanone]	lower stability	lower stability	
Cc1c(C(=O)c2cnn(C)c2O)ccc(S(C)(=O)=O)c1C1=NOCC1 [form VII-S]	lower stability		behaviour of the solvate at room temperature ([3]; listed as solvate VII-S): releasing the solvent again and then forms the form I; stability of formulations which comprise the form ([2]; listed as solvate VII-S): lower stability
Cc1c(C(=O)c2cnn(C)c2O)ccc(S(C)(=O)=O)c1C1=NOCC1 [form VIII, [3-(4,5-dihydro-3-isoxazolyl)-2-methyl-4-(methylsulfonyl)phenyl]-(5-hydroxy-1-methyl-1H-pyrazol-4-yl)methanone]	lower stability	lower stability	
Cc1c(C(=O)c2cnn(C)c2O)ccc(S(C)(=O)=O)c1C1=NOCC1 [form III, [3-(4,5-dihydro-3-isoxazolyl)-2-methyl-4-(methylsulfonyl)phenyl]-(5-hydroxy-1-methyl-1H-pyrazol-4-yl)methanone]	lower stability	lower stability	
Cc1c(C(=O)c2cnn(C)c2O)ccc(S(C)(=O)=O)c1C1=NOCC1 [form V-S]	lower stability		behaviour of the solvate at room temperature ([3]; listed as solvate V-S): releasing the solvent again and then forms a mixture of the forms II and IV; stability of formulations which comprise the form ([2]; listed as solvate V-S): lower stability
Cc1c(C(=O)c2cnn(C)c2O)ccc(S(C)(=O)=O)c1C1=NOCC1 [form VI-S]	lower stability		behaviour of the solvate at room temperature ([3]; listed as solvate VI-S): releasing the solvent again and then forms the form II; stability of formulations which comprise the form ([2]; listed as solvate VI-S): lower stability
Cc1c(C(=O)c2cnn(C)c2O)ccc(S(C)(=O)=O)c1C1=NOCC1 [form I, [3-(4,5-dihydro-3-isoxazolyl)-2-methyl-4-(methylsulfonyl)phenyl]-(5-hydroxy-1-methyl-1H-pyrazol-4-yl)methanone]	stable	markedly higher	stability with regard to conversion into another form ([1]; compared to other solid forms): increased stability
Cc1c(C(=O)c2cnn(C)c2O)ccc(S(C)(=O)=O)c1C1=NOCC1 [form II, [3-(4,5-dihydro-3-isoxazolyl)-2-methyl-4-(methylsulfonyl)phenyl]-(5-hydroxy-1-methyl-1H-pyrazol-4-yl)methanone]	lower stability	lower stability	

Reference: patent publication US20100197502A1, “Crystalline form of [3-(4,5-dihydro-3-isoxazolyl)-2-methyl-4-(methylsulfonyl)phenyl]-(5-hydroxy-1-methyl-1H-pyrazol-4-yl)methanone” (priority 2007, published 2010)
